18 molecules from patent US12459951B2, “Compounds that interact with RAS superfamily proteins for treatment of cancers, inflammatory diseases, rasopathies, and fibrotic disease” (SHY Therapeutics, LLC, priority 2022, dated 2025) can be followed below.

Counter-ions that a name gives are not always drawn.

Tested on in one series: not listed separately
The series can be described thus: Kinetic Solubility Assay in pH 7.4 Buffer + 2% DMSO. It is filed as physicochemical. The note with it: phosphate-buffered saline pH 7.4 with 2% DMSO, aqueous buffer, kinetic from dmso stock, 25° C., two hours. Here is the method:
Biological Example 9: Kinetic Solubility
Kinetic solubility assay in pH 7.4 Buffer+2% DMSO (“Kinetic Solubility Assay) was performed according to the following protocol: Briefly, using a 20 mM stock solution of the tested compounds in 100% DMSO, dilutions were prepared to a theoretical concentration of 400 μM in duplicates in phosphate-buffered saline pH 7.4 (138 mM NaCl, 2.7 mM KCl, 10 mM K-phosphate) with 2% final DMSO. The tested compounds dilutions in PBS were further allowed to equilibrate at 25° C. on a thermostatic shaker for two hours and then filtered through HTS filter plates using a vacuum manifold. The filtrates of the test compounds were diluted 2-fold with acetonitrile with 2% DMSO before measuring.
In parallel, using a 20 mM stock solution of the tested compounds in 100% DMSO, dilutions were prepared to theoretical concentrations of 0 μM (blank), 10 μM, 25 μM, 50 μM, 100 μM, and 200 μM in 50% acetonitrile/PBS with 2% final DMSO to generate calibration curves. Ondansetron was used as a reference compound to control proper assay performance. 200 μL of each sample was transferred to a 96-well plate and measured in the 230-550 nm range with a 5 nm step.
The concentrations of compounds in PBS filtrate are calculated using a dedicated Microsoft Excel calculation script. Proper absorbance wavelengths for calculations are selected for each compound manually based on absorbance maximums (absolute absorbance unit values for the minimum and maximum concentration points within the 0-3 OD range). Each final dataset is visually evaluated by the operator, and goodness of fit (R2) is calculated for each calibration curve. The effective range of this assay is approximately 2-400 μM and the compounds returning values close to the upper limit of the range may have higher actual solubility (e.g., 5′-deoxy-5-fluorouridine).
Table 8 show kinetic solubility data for selected compounds tested in the Kinetic Solubility assay described above.
In general, solubility refers to how much of the substance goes into solution per volume. On to `Cc1c(-c2ccn(C)n2)cn2nc(-c3nccn3C)nc(Nc3ccccn3)c12` [Compound 118, 5-Methyl-2-(1-methyl-1H-imidazol-2-yl)-6-(1-methyl-1H-pyrazol-3-yl)-N-(pyridin-2-yl)pyrrolo[2,1-f][1,2,4]triazin-4-amine], for which the solubility at 2 h is over 30 µM.

Take `Cc1c(-c2ccn(C)n2)cn2nc(-c3nccn3C)nc(Nc3ccncn3)c12.Cl` [Compound 116, 5-Methyl-2-(1-methyl-1H-imidazol-2-yl)-6-(1-methyl-1H-pyrazol-3-yl)-N-(pyrimidin-4-yl)pyrrolo[2,1-f][1,2,4]triazin-4-amine hydrochloride salt]: the solubility at 2 h lay within 10 to 30 µM.

The subject of another series is Erk1/2 phosphorylation. The series can be described thus: Erk1/2 Phosphorylation Assay (western blot), Panc-1. As to conditions: at 10 μM, * = activation. It is filed as cell-based, human. Here is the method:
Protocol for Western Erk1/2 Cell-Based Phosphorylation Assay
This assay is referred to as the “Erk1/2 Phosphorylation Assay” throughout this application.
Cell lines: Human tumor-derived pancreatic cancer cell line Panc-1 (expressing KRas G12D mutant) was purchased from American Type Culture Collection and grown in complete DMEM-High Glucose medium, supplemented with penicillin (100 U/mL), streptomycin (100 μg/mL), and 10% heat-inactivated FBS at 37° C. in a humidified incubator with 5% CO2.
Method 1: Cells were plated at 350000 cells/well density in a 12-well plate, allowed 3 hours to adhere to the plate, then starved in the appropriate medium in the presence of 0.5% FBS overnight. The small molecules to be tested were added to the cells in the final concentration of 10 μM in the presence of 0.3% DMSO for 6 hours incubation at 37° C. For IC50 value determination, serial dilutions of compounds were added to cells under the same conditions. Next, cells were stimulated with 1.5 ng/ml EGF for 15 minutes then cells were lysed with lysis buffer containing 1% Triton X-100, EDTA, and Halt™ Protease & Phosphatase Inhibitor Cocktail (Thermo Scientific). Protein concentration was assessed by BCA protein assay (Thermo Scientific). Phosphorylation level of Erk1/2 was determined by western blot.
Method 2: Cells were plated at 350000 cells/well density in a 12-well plate in 10% FBS. The next day small molecules to be tested were added to the cells in the final concentration of 10 μM in the presence of 0.3% DMSO for 6 hours incubation at 37° C. For IC50 value determination, serial dilutions of compounds were added to cells under the same conditions. Next, cells were lysed with lysis buffer containing 1% Triton X-100, EDTA, and Halt™ Protease & Phosphatase Inhibitor Cocktail (Thermo Scientific). Protein concentration was assessed by BCA protein assay (Thermo Scientific). Phosphorylation level of Erk1/2 was determined by western blot.
Western blot protocol: Equal amounts of protein (15-50 μg) were separated by SDS-PAGE and transferred to nitrocellulose membranes (Invitrogen by Thermo Fisher Scientific). The membrane was stained with Ponceau S Stain (Boston BioProducts) to verify uniform protein loading. Membranes were blocked with 10% milk and phosphorylation levels of Erk1/2 were assessed by incubating overnight at 4° C. with anti-phospho-p44/42 (Thr202/Tyr204) antibody (Cell Signaling) followed by HRP-conjugated secondary antibody (Jackson Immunoresearch, West Grove, PA). Bands were incubated in Amersham ECL Prime Western Blotting Detection Reagent (GE Healthcare) and visualized using the ChemiDoc MP imaging system (Bio-Rad).
In general terms: A western blot detects proteins with antibodies after separation by electrophoresis.
On to `Cc1c(-c2ccn(C)n2)cn2nc(-c3nccn3C)nc(Nc3ccccn3)c12` [Compound 118, 5-Methyl-2-(1-methyl-1H-imidazol-2-yl)-6-(1-methyl-1H-pyrazol-3-yl)-N-(pyridin-2-yl)pyrrolo[2,1-f][1,2,4]triazin-4-amine], for which the “% inh of Erk1/2 phosphorylation in Panc-1” value (“% inh” below) was “D* (85-100% activation)”. Take `Cc1c(-c2ccn(C)n2)cn2nc(-c3nccn3C)nc(Nc3ccncn3)c12.Cl` [Compound 116, 5-Methyl-2-(1-methyl-1H-imidazol-2-yl)-6-(1-methyl-1H-pyrazol-3-yl)-N-(pyrimidin-4-yl)pyrrolo[2,1-f][1,2,4]triazin-4-amine hydrochloride salt]: the “% inh” value was “D* (85-100% activation)”.

As to `CO[C@@H]1CC[C@@H](Nc2nc(-c3nccn3C)nn3cc(-c4ccn(C)n4)c(C)c23)C1` (racemic) [Compound 132, rac N-((1R,3R)-3-Methoxycyclopentyl)-5-methyl-2-(1-methyl-1H-imidazol-2-yl)-6-(1-methyl-1H-pyrazol-3-yl)pyrrolo[2,1-f][1,2,4]triazin-4-amine], the “% inh” value is on record as 0 (0% inhibition). Still for that read-out and setting: next, `CCc1nc(Nc2nc(-c3nccn3C)nn3cc(-c4ccn(C)n4)c(C)c23)nn1C` [Compound 108, N-(5-Ethyl-1-methyl-1H-1,2,4-triazol-3-yl)-5-methyl-2-(1-methyl-1H-imidazol-2-yl)-6-(1-methyl-1H-pyrazol-3-yl)pyrrolo[2,1-f][1,2,4]triazin-4-amine]: “A* (1-25% activation)”. `CO[C@H]1C[C@H](Nc2nc(-c3nccn3C)nn3cc(-c4cccnc4)c(C)c23)C1` [Compound 151, N-((1r,3r)-3-Methoxycyclobutyl)-5-methyl-2-(1-methyl-1H-imidazol-2-yl)-6-(pyridin-3-yl)pyrrolo[2,1-f][1,2,4]triazin-4-amine]: the “% inh” value is “D* (85-100% activation)”. On to `CO[C@H]1C[C@H](Nc2nc(-c3nccn3C)nn3cc(-c4ccn(C)n4)c(C)c23)C1` [Compound 103, N-((1r,3r)-3-Methoxycyclobutyl)-5-methyl-2-(1-methyl-1H-imidazol-2-yl)-6-(1-methyl-1H-pyrazol-3-yl)pyrrolo[2,1-f][1,2,4]triazin-4-amine hydrochloride salt], for which the “% inh” value is “A* (1-25% activation)”. The same measure, in the same setting: for `Cc1c(-c2ccn(C3CC3)n2)cn2nc(-c3nccn3C)nc(Nc3cc(O)ccn3)c12` [Compound 150, 2-((6-(1-Cyclopropyl-1H-pyrazol-3-yl)-5-methyl-2-(1-methyl-1H-imidazol-2-yl)pyrrolo[2,1-f][1,2,4]triazin-4-yl)amino)pyridin-4-ol] the value was “A (1-25% inhibition)”; for `CO[C@H]1C[C@@H](Nc2nc(-c3nccn3C)nn3cc(-c4ccn(C)n4)c(C)c23)C1` [Compound 131, N-((1s,3s)-3-Methoxycyclobutyl)-5-methyl-2-(1-methyl-1H-imidazol-2-yl)-6-(1-methyl-1H-pyrazol-3-yl)pyrrolo[2,1-f][1,2,4]triazin-4-amine], “A* (1-25% activation)”. On the same count and under the same terms, next, `COc1cc(-c2cn3nc(-c4nccn4C)nc(N[C@@H]4CC[C@H](OC)C4)c3c2C)ccn1` (racemic) [Compound 164, rac N-((1R,3S)-3-Methoxycyclopentyl)-6-(2-methoxypyridin-4-yl)-5-methyl-2-(1-methyl-1H-imidazol-2-yl)pyrrolo[2,1-f][1,2,4]triazin-4-amine]: “A* (1-25% activation)”; `COc1cnc(Nc2nc(-c3nccn3C)nn3cc(-c4ccn(C)n4)c(C)c23)cn1` [Compound 110, N-(5-Methoxypyrazin-2-yl)-5-methyl-2-(1-methyl-1H-imidazol-2-yl)-6-(1-methyl-1H-pyrazol-3-yl)pyrrolo[2,1-f][1,2,4]triazin-4-amine]: “B* (26-49% activation)”; `Cc1c(-c2ccn(C(C)C)n2)cn2nc(-c3nccn3C)nc(Nc3nccc(OCCN(C)C)n3)c12` [Compound 96, N-(4-(2-(Dimethylamino)ethoxy)pyrimidin-2-yl)-6-(1-isopropyl-1H-pyrazol-3-yl)-5-methyl-2-(1-methyl-1H-imidazol-2-yl)pyrrolo[2,1-f][1,2,4]triazin-4-amine]: 0 (0% inhibition). Take `COc1ccnc(Nc2nc(-c3nccn3C)nn3cc(-c4cnn(C(C)C)c4)c(C)c23)c1` [Compound 165, 6-(1-Isopropyl-1H-pyrazol-4-yl)-N-(4-methoxypyridin-2-yl)-5-methyl-2-(1-methyl-1H-imidazol-2-yl)pyrrolo[2,1-f][1,2,4]triazin-4-amine]: the “% inh” value is “C* (46-84% activation)”. On the same count and under the same terms, for `COc1ccnc(Nc2nc(-c3nccn3C)nn3cc(-c4cccnc4)c(-c4cccnc4)c23)c1` [Compound 169, N-(4-methoxypyridin-2-yl)-2-(1-methyl-1H-imidazol-2-yl)-5,6-di(pyridin-3-yl)pyrrolo[2,1-f][1,2,4]triazin-4-amine] the value was “B* (26-49% activation)”; for `Cc1c(-c2ccn(C(C)C)n2)cn2nc(-c3ccccn3)nc(O)c12` [Compound 8, 6-(1-Isopropyl-1H-pyrazol-3-yl)-5-methyl-2-(pyridin-2-yl)pyrrolo[2,1-f][1,2,4]triazin-4-ol], 0 (0% inhibition); for `Cc1c(-c2ccn(C)n2)cn2nc(-c3nccn3C)nc(Nc3nccc(OCCN(C)C)n3)c12` [Compound 105, N-(4-(2-(Dimethylamino)ethoxy)pyrimidin-2-yl)-5-methyl-2-(1-methyl-1H-imidazol-2-yl)-6-(1-methyl-1H-pyrazol-3-yl)pyrrolo[2,1-f][1,2,4]triazin-4-amine], “A (1-25% inhibition)”. In the case of `Cc1c(-c2ccn(C)n2)cn2nc(-c3nccn3C)nc(Nc3cc(OC(C)C)ccn3)c12` [Compound 136, N-(4-Isopropoxypyridin-2-yl)-5-methyl-2-(1-methyl-1H-imidazol-2-yl)-6-(1-methyl-1H-pyrazol-3-yl)pyrrolo[2,1-f][1,2,4]triazin-4-amine], the “% inh” value is “D* (85-100% activation)”. Same read-out and setting: for `Cc1c(-c2ccn(C)n2)cn2nc(-c3nccn3C)nc(Nc3nnco3)c12.Cl` [Compound 119, N-(5-Methyl-2-(1-methyl-1H-imidazol-2-yl)-6-(1-methyl-1H-pyrazol-3-yl)pyrrolo[2,1-f][1,2,4]triazin-4-yl)-1,3,4-oxadiazol-2-amine hydrochloride salt] the value was “A* (1-25% activation)”. Still for that read-out and setting: next, `CO[C@H]1C[C@H](Nc2nc(-c3nccn3C)nn3cc(-c4ccncc4)c(C)c23)C1` [Compound 159, N-((1r,3r)-3-Methoxycyclobutyl)-5-methyl-2-(1-methyl-1H-imidazol-2-yl)-6-(pyridin-4-yl)pyrrolo[2,1-f][1,2,4]triazin-4-amine]: “A (1-25% inhibition)”.
